Measured values published in patent US8273724B2, “Melanoma antigens and their use in diagnostic and therapeutic methods” (The United States of America, as represented by the …, priority 1994, dated 2012).
pIC50: −log10 of the molar value. Where two headings read alike, the source gives them in different places. Where a SMILES comes first, the peptide text is derived from it.

Assays:
[1] = molecular target: T1, HLA-A2.1 (Homo sapiens, UniProt P04439, D140Y/D185E/D98H/E176V/E277Q/G131W/G231S/I119V/I121R/I166T/I218V/L300P/L318F/N151K/N90K/P208A/P217A/Q86G/Q94H/R138H/R169H/T345S); assay: Peptide binding assay to HLA-A2.1, competition with radiolabeled HBc18-27 (Example 4)
[2] = test system: HLA-A2.1+ T2 cells; conditions: for TIL that recognize the peptide: cytotoxicity assays, T2 preincubated with peptide
[3] = test system: T2 cells; assay: Induction of peptide specific CTL from PBL, 51Cr release against T2 cells with or without peptide (Example 5); assay type: cell-based, human; conditions: E:T = 3D40:1
Description: (§1) Induction of peptide specific CTL PBMC were separated from peripheral blood of HLA-A2+ melanoma patients and normal donors by centrifugation on Ficoll-Hypaque gradients and used as fresh or cryopreserved samples. […] Two days later, 12 IU/ml interleukin 2 (IL-2) (Chiron Co., Emeryville, Calif.) were added to the cultures. Lymphocytes were then restimulated weekly as follows: responder cells were harvested, washed once and replated in 24-well plates at a concentration of 2.5×10^5 cells/ml in CM. Autologous PBMC were thawed, washed twice in PBS, resuspended at 5-8×10^6 cells/ml in CM and pulsed with 1 ug/ml peptide in 15-ml conical tubes (5 ml/tube) for 3 hours at 37° C. These PBMC (stimulators) were then irradiated at 3000 rads, washed once in PBS and added to the responder cells at responder:stimulator ratios ranging between 1:3 and 1:10. The next day, 12 IU/ml IL-2 were added to the cultures. The activity of these CTL was tested by cytotoxicity assays after at least 2 rounds (14 days) of peptide stimulation. To generate CTL from TIL cultures, the dissociated tumor suspension were cultured for 1-2 days in 10% FCS RPMI-1640 medium to allow tumor cell adherence. The lymphocytes, recovered from the non-adherent fraction, were used for the induction of peptide specific CTL as described above.
(§2) Assessment of antigen recognition by CTL. ^51Cr release cytotoxic assays were performed to detect the recognition of peptide and melanoma cells by CTL. To analyze peptide recognition, T2 cell lines were preincubated for 2 h at 37° C. with 1 ug/ml peptide, washed and used as target cells in a ^51Cr release cytotoxic assay. The melanoma lines 624mel was established in our laboratory (See Example 1).

[4] = test system: 624mel melanoma cell line; assay: Induction of peptide specific CTL from PBL, 51Cr release against melanoma cells (Example 5); assay type: cell-based, human; conditions: target 624mel; E:T = 3D40:1; after 4 stimulations (Table 20)
Description: as §1, §2

[5] = molecular target: T1, HLA-A2.1; assay: HLA-A2.1 binding assay of modified peptides, inhibition of radiolabeled Hbc 18-27 (Example 5); conditions: natural epitopes
[6] = test system: T2 cell lines preincubated with peptide; assay: Recognition of modified peptides by natural epitope (M9-2, G9-154, G9-209, G9-280) reactive T-cells, 51Cr release on peptide-pulsed T2 cells (Example 5); assay type: cell-based, human
How it was run: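 T2 target cells were pulsed with 1 ug/ml peptide for 2 h at 37° C., then washed. CTL recognition was measured by ^51Cr release cytotoxicity.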

[7] = test system: T2 cells preincubated with peptides; assay: IFN-γ / cytokine release by TIL incubated with T2 cells preincubated with peptides; assay type: cell-based, human; conditions: T2 cells preincubated with peptide; data not shown
[8] = Exp. 1, peptide 1 ug/ml, TIL 620-1
[9] = Exp. 1, peptide 1 ug/ml, TIL 620-2
[10] = Exp. 1, peptide 1 ug/ml, TIL 660-1
[11] = Exp. 1, peptide 1 ug/ml, TIL 1143
[12] = Exp. 1, peptide 1 ug/ml, TIL 1200
[13] = Exp. 1, peptide 1 ug/ml, TIL 1235
[14] = Exp. 3, peptide 1 ug/ml, TIL 660-3
[15] = Exp. 3, peptide 1 ug/ml, TIL 1143
[16] = Exp. 3, peptide 1 ug/ml, TIL 1200
[17] = Exp. 3, peptide 1 ug/ml, TIL 1235

SMILES	% specific lysis at E:T = 40:1 [2, 8] [%]	% specific lysis at E:T = 40:1 [2, 9] [%]	% specific lysis at E:T = 40:1 [2, 10] [%]	% specific lysis at E:T = 40:1 [2, 11] [%]	% specific lysis at E:T = 40:1 [2, 12] [%]	% specific lysis at E:T = 40:1 [2, 13] [%]	% specific lysis at E:T = 40:1 [2, 14] [%]	% specific lysis at E:T = 40:1 [2, 15] [%]	% specific lysis at E:T = 40:1 [2, 16] [%]	% specific lysis at E:T = 40:1 [2, 17] [%]	TIL that recognize the peptide [2]	also measured
CC(C)C[C@H](NC(=O)[C@@H](N)C(C)C)C(=O)N[C@@H](Cc1ccc(O)cc1)C(=O)N[C@@H](CCCNC(=N)N)C(=O)N[C@@H](Cc1ccc(O)cc1)C(=O)NCC(=O)N[C@@H](CO)C(=O)N[C@@H](Cc1ccccc1)C(=O)N[C@@H](CO)C(=O)N[C@H](C(=O)O)C(C)C [G10-5] (H-VLYRYGSFSV-OH; N-terminus and C-terminus assumed)	2	7	2	1	7	0	14	2	6	5	TIL660-3 also recognized	pIC50 ([1]; binding to HLA-A2.1): 7.89; Ratio to Standard: binding affinity of the sample peptide to that of the standard peptide ([1]; standard peptide 50% inhibition at 5 nM): 0.38; lysis of T2 cells preincubated with the peptide [2]: repeatedly low
CC(C)C[C@H](NC(=O)[C@@H](N)Cc1ccc(O)cc1)C(=O)N[C@@H](CCC(=O)O)C(=O)N1CCC[C@H]1C(=O)NCC(=O)N1CCC[C@H]1C(=O)N[C@H](C(=O)N[C@H](C(=O)N[C@@H](C)C(=O)O)[C@@H](C)O)C(C)C [G9280]	2	7	43	11	0	0	99	37	9	5	recognized by TIL660 and TIL1143	% specific lysis by PBL stimulated with the peptide ([3]; target T2 + G9-280-9V, after 4 stimulations): 8%; % specific lysis by PBL stimulated with the peptide ([3]; target T2 + G9-280, after 4 stimulations): 11%; % specific lysis by PBL stimulated with the peptide ([3]; target T2, after 4 stimulations (Table 20)): 3%; binding affinity class to HLA-A2.1 [1]: inteivediate; % specific lysis by PBL stimulated with the peptide [4]: 11%; HLA-A2.1 binding, in words [5]: not high affinity binders; number of gp100 reactive TIL recognizing the peptide ([2]; 4 gp100 reactive TIL from different patients): 2 of 4; % specific lysis at E:T = 40:1 ([2]; Exp. 2, peptide 1 ng/ml, TIL 620-1): 2%; % specific lysis at E:T = 40:1 ([2]; Exp. 2, peptide 1 ng/ml, TIL 620-2): 9%; % specific lysis at E:T = 40:1 ([2]; Exp. 2, peptide 1 ng/ml, TIL 660-2): 75%; % specific lysis at E:T = 40:1 ([2]; Exp. 2, peptide 1 ng/ml, TIL 1143): 34%; % specific lysis at E:T = 40:1 ([2]; Exp. 2, peptide 1 ng/ml, TIL 1200): 1%; % specific lysis at E:T = 40:1 ([2]; Exp. 2, peptide 1 ng/ml, TIL 1235): 2%
CC[C@H](C)[C@H](NC(=O)CNC(=O)[C@H](C)NC(=O)[C@H](C)N)C(=O)NCC(=O)N[C@H](C(=O)N[C@@H](CC(C)C)C(=O)N[C@H](C(=O)N[C@H](C(=O)O)C(C)C)[C@@H](C)O)[C@@H](C)CC [M9-2]												Recognition by M9-2 reactive T-cell [6]: + (+, recognized); cytokine secretion (IFN-γ, GM-CSF, TNF-α) by 10 TIL and clone A42 [7]: secreted cytokines
